# According to ChEMBL document CHEMBL4480432, “Expansion of a novel lead targeting M. tuberculosis DHFR as antitubercular agents” (Bioorg Med Chem, 2019):
# Biological target: T1, Dihydrofolate reductase (Homo sapiens, UniProt P00374)
# T1 sequence (P00374 whole entry): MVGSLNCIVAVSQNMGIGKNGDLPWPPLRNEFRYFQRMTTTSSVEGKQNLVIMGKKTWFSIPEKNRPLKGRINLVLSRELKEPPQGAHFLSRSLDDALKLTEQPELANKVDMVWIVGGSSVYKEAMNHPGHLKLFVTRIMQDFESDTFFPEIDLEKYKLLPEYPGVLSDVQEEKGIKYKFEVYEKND
# Test: Inhibition of human DHFR assessed as reduction in consumption of NADPH using DHF as substrate preincubated for 1 min followed by DHF addition and measured for 2 mins by spectrophotometric method
# Conditions: not given
row,SMILES,IC50
1,CC(=O)c1c(C)n(Cc2ccccc2)c2ccc(OCc3cn(-c4cccc(Cl)c4)nn3)cc12,180 µM

# Biological target: T2, Dihydrofolate reductase (Mycobacterium tuberculosis, UniProt P9WNX1)
# T2 sequence (P9WNX1 whole entry): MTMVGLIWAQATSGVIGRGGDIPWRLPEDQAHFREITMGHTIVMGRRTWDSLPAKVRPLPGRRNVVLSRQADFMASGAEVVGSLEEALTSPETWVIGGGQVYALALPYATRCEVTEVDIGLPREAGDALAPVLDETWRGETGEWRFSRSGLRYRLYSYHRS
# Test: Inhibition of Mycobacterium tuberculosis H37Rv DHFR expressed in Escherichia coli BL21(DE3) assessed as reduction in consumption of NADPH using DHF as substrate preincubated for 1 min followed by DHF addition and measured for 2 mins by spectrophotometric method
# Conditions: not given
row,SMILES,IC50
1,CC(=O)c1c(C)n(Cc2ccccc2)c2ccc(OCCCC(=O)O)cc12,25 µM
2,CC(=O)c1c(C)n(Cc2ccccc2)c2ccc(OCc3cn(-c4cccc(Cl)c4)nn3)cc12,43.1 µM

# Tested on: DHFR (human versus Mycobacterium tuberculosis H37Rv)
# Test: Selectivity index, ratio of IC50 for human DHFR to IC50 for Mycobacterium tuberculosis H37Rv DHFR expressed in Escherichia coli BL21(DE3)
# Assay type: toxicity
# Conditions: human and Mycobacterium tuberculosis H37Rv; read-out: Ratio IC50
row,SMILES,selectivity ratio
1,CC(=O)c1c(C)n(Cc2ccccc2)c2ccc(OCc3cn(-c4cccc(Cl)c4)nn3)cc12,4.17

# Tested on: Mycobacterium tuberculosis
# Test: microbe, parasite or virus in culture
# Conditions: H37Rv ATCC 27294, 168 h
# Description: Antitubercular activity against Mycobacterium tuberculosis H37Rv ATCC 27294 after 7 days by microplate alamar blue method
row,SMILES,MIC
1,CC(=O)c1c(C)n(Cc2ccccc2)c2ccc(OCc3cn(-c4ccc(C)cc4)nn3)cc12,55.5 µM
2,CCOC(=O)c1c(C)n(Cc2ccccc2)c2ccc(OCc3cn(-c4ccc(C)cc4)nn3)cc12,26 µM
3,CCOC(=O)c1c(C)n(Cc2ccccc2)c2ccc(OCc3cn(-c4ccc(Br)cc4)nn3)cc12,45.9 µM
4,CCOC(=O)c1c(C)n(Cc2ccccc2)c2ccc(OCc3cn(-c4ccc(F)cc4)nn3)cc12,51.6 µM
5,CC(=O)c1c(C)n(Cc2ccccc2)c2ccc(OCc3cn(-c4ccc(F)cc4)nn3)cc12,55 µM
6,CCOC(=O)c1c(C)n(Cc2ccccc2)c2ccc(OCc3cn(-c4ccccc4OC)nn3)cc12,50.4 µM
7,CCOC(=O)c1c(C)n(Cc2ccccc2)c2ccc(OCc3cn(-c4cccc(Cl)c4)nn3)cc12,50.2 µM
8,CCOC(=O)c1c(C)n(Cc2ccccc2)c2ccc(OCc3cn(-c4ccc(C#N)cc4)nn3)cc12,12.7 µM
9,COc1ccccc1-n1cc(COc2ccc3c(c2)c(C(C)=O)c(C)n3Cc2ccccc2)nn1,53.6 µM
10,CCOC(=O)c1c(C)n(Cc2ccccc2)c2ccc(OCc3cn(-c4ccc(CC)cc4)nn3)cc12,50.6 µM
11,CC(=O)c1c(C)n(Cc2ccccc2)c2ccc(OCc3cn(-c4ccc(C#N)cc4)nn3)cc12,54.2 µM
12,CCc1ccc(-n2cc(COc3ccc4c(c3)c(C(C)=O)c(C)n4Cc3ccccc3)nn2)cc1,26.9 µM
13,CC(=O)c1c(C)n(Cc2ccccc2)c2ccc(OCc3cn(-c4ccc(C(F)(F)F)cc4)nn3)cc12,49.5 µM
14,CC(=O)c1c(C)n(Cc2ccccc2)c2ccc(OCc3cn(-c4ccc(Cl)cc4)nn3)cc12,53.1 µM
15,CCOC(=O)c1c(C)n(Cc2ccccc2)c2ccc(OCc3cn(-c4ccc(C(F)(F)F)cc4)nn3)cc12,46.8 µM
16,CC(=O)c1c(C)n(Cc2ccccc2)c2ccc(OCc3cn(-c4cccc(Cl)c4)nn3)cc12,6.64 µM
17,CCOC(=O)c1c(C)n(Cc2ccccc2)c2ccc(OCc3cn(-c4ccc([N+](=O)[O-])cc4)nn3)cc12,48.9 µM
18,CC(=O)c1c(C)n(Cc2ccccc2)c2ccc(OCc3cn(-c4ccc([N+](=O)[O-])cc4)nn3)cc12,12.9 µM
19,CC(=O)c1c(C)n(Cc2ccccc2)c2ccc(OCc3cn(-c4ccc(C)c(C)c4)nn3)cc12,53.8 µM
20,O=C(O)c1cn(C2CC2)c2cc(N3CCNCC3)c(F)cc2c1=O [CIPROFLOXACIN],4.7 µM
21,CC[C@@H](CO)NCCN[C@@H](CC)CO [ETHAMBUTOL],16.5 µM
22,NNC(=O)c1ccncc1 [ISONIAZID],0.73 µM
23,CN(Cc1cnc2nc(N)nc(N)c2n1)c1ccc(C(=O)N[C@@H](CCC(=O)O)C(=O)O)cc1 [METHOTREXATE],3.38 µM
24,CO[C@H]1/C=C/O[C@@]2(C)Oc3c(C)c(O)c4c(O)c(c(/C=N/N5CCN(C)CC5)c(O)c4c3C2=O)NC(=O)/C(C)=C\C=C\[C@H](C)[C@H](O)[C@@H](C)[C@@H](O)[C@@H](C)[C@H](OC(C)=O)[C@@H]1C [RIFAMPIN],0.25 µM
